Assay results reported in patent US8101760B2, “Glucocorticoid receptor modulator and methods of use” (Eli Lilly and Company, priority 2007, dated 2012).
pEC50: −log10 of the molar value.

What was measured:
[1] = biological target: T1, human androgen receptor (AR) (Homo sapiens, UniProt P10275); assay: Nuclear hormone receptor functional modulation assay (ARE-luciferase, HEK293), AR; format: cell-based
T1 construct: expressed in transfected cells; host or cells: HEK293, transient transfection (Fugene), CMV promoter plasmid
T1 sequence (P10275 1-920): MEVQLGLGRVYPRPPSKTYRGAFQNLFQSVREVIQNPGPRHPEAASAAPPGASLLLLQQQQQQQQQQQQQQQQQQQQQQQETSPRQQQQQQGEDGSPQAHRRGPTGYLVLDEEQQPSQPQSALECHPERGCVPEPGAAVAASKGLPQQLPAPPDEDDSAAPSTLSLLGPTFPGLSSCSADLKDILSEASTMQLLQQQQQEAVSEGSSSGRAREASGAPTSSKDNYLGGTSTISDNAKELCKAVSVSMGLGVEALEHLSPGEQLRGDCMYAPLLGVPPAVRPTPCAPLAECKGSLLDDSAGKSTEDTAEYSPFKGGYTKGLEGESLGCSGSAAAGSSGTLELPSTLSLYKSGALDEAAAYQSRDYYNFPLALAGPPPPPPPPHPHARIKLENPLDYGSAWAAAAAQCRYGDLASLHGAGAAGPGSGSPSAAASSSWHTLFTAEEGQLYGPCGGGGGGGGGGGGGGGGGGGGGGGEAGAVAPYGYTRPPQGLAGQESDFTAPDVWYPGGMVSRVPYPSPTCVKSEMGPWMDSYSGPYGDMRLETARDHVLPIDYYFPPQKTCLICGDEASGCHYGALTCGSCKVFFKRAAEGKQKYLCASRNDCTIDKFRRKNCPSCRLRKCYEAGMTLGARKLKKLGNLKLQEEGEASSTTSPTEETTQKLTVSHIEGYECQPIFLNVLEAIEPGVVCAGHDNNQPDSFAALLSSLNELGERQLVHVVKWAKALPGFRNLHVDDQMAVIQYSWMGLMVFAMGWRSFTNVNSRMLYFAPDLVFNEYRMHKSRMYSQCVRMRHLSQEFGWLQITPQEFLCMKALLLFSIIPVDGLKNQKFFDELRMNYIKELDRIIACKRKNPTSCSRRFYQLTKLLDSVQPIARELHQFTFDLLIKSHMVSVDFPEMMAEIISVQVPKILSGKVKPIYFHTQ
From the text: (§1) The solvents, reagents, and ligands employed in the functional assay are readily available from commercial sources, or can be prepared by one of ordinary skill in the art.
(§2) Human embryonic kidney HEK293 cells are transfected with steroid hormone receptor and reporter gene plasmids using Fugene™ (Roche Diganostics) transfection reagent. Briefly, the reporter plasmid containing two copies of probasin ARE (androgen response element 5′GGTTCTTGGAGTACT3′ (SEQ ID NO:1)) and TK(thymidine kinase) promoter upstream of the luciferase reporter cDNA, is transfected into HEK293 cells with a plasmid constitutively expressing human androgen receptor (AR) using viral CMV(cytomegalovirus) promoter. The reporter plasmid containing two copies of GRE (glucocorticoid response element 5′TGTACAGGATGTTCT′3 (SEQ ID NO:2)) and TK promoter upstream of the luciferase reporter cDNA is transfected with a plasmid constitutively expressing either human glucocorticoid receptor (GR), human mineralocorticoid receptor (MR), or human progesterone receptor (PR) using viral CMV promoter. Cells are transfected in T150 cm flasks in DMEM media with 5% charcoal-stripped Fetal Bovine Serum (FBS). […] In the antagonist mode for the assays, low concentrations of agonist for each respective receptor are added to the media (0.25 nM dexamethasone for GR, 0.3 nM of methyltrienolone for AR, 0.05 nM of promegestone for PR and 0.05 nM aldosterone for MR), and the ability of test compound to antagonize the agonist response is determined. After 24 hours of incubation with test compounds, cells are lysed and luciferase activity is determined using standard techniques.
(§3) Data are fitted to a four parameter-fit logistic curve fit to determine EC50 values. […] IC50 values may be determined similarly using antagonist mode assay data. Percent inhibitions may also be determined relative to the response in the presence of agonist alone, as described above.

[2] = biological target: T2, human progesterone receptor (PR) (Homo sapiens, UniProt P06401); assay: Nuclear hormone receptor functional modulation assay (GRE-luciferase, HEK293), PR; format: cell-based
T2 construct: expressed in transfected cells; host or cells: HEK293, transient transfection (Fugene), CMV promoter plasmid
T2 sequence (P06401 1-933): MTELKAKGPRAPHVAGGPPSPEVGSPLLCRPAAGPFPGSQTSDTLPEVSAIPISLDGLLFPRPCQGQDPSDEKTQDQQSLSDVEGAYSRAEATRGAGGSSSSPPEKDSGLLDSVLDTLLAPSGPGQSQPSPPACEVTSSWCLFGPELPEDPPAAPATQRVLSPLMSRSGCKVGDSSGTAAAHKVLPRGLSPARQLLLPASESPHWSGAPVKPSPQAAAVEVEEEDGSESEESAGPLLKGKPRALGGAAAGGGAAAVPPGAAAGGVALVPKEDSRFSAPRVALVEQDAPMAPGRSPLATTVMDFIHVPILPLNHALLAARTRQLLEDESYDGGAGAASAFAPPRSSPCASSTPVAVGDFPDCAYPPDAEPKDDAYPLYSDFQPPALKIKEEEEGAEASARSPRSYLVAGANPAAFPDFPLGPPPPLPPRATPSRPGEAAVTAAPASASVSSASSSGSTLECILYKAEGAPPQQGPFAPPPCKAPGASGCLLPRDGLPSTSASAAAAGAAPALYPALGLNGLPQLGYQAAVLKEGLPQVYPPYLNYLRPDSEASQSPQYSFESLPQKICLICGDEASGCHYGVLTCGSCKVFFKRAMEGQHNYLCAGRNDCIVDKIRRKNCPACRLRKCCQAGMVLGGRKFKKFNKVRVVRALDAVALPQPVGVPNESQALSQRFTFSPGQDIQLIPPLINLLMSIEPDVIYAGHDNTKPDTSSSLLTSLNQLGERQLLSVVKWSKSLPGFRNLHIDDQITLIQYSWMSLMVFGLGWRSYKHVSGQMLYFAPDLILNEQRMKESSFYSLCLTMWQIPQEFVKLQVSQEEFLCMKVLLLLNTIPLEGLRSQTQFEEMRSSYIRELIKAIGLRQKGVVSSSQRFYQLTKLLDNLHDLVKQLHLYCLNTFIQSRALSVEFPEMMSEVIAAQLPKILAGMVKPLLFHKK
From the text: as §1, §2, §3

[3] = agonist mode, activating transcription
[4] = functional modulation, in words

SMILES: CC/C(=C1\c2ccc(Cl)cc2OCc2ncccc21)c1cccc(NS(C)(=O)=O)c1 [Compound (I), (E)-N-{3-[1-(8-Chloro-11H-10-oxa-1-aza-dibenzo[a,d]cyclohepten-5-ylidene)-propyl]-phenyl}-methanesulfonamide]
- pEC50 [1, 3]: < 5.00
- modulation of gene expression mediated by AR [1, 4]: only limited activity
- AR % Eff. ([1]; percent efficacy at 10 μM relative to 100 nM methyltrienolone, mean of 3): 2.4%
- pEC50 [2, 3]: < 5.00
- modulation of gene expression mediated by PR [2, 4]: only limited activity
- PR % Eff. ([2]; percent efficacy at 10 μM relative to 30 nM promegestone, mean of 3): 40.1%
